{
  "source": "patent US20060030720A1",
  "about": "“Method for synthesizing macrosphelides” (priority 2002, published 2006)",
  "data": [
    {"smiles": "C[C@H]1C/C=C/C(=O)O[C@@H](C)CC(=O)O[C@@H](C)C/C=C/C(=O)O1", "note": "[Example 1]", "values": [
      {"measurement": "melting point", "value": "94 to 95", "unit": "°C"}
    ]}
  ]
}
